Experiments:
3T3-L1 adipocytes = assay: Glucose uptake in differentiated 3T3-L1 adipocytes; assay type: cell-based; conditions: for % Glucose uptake 0.1 μm / % Glucose uptake 1.0 μm: average of quadruplicate ± SD
Protocol: Referring to FIG. 8 glucose uptake in 3T3-L1 differentiated adipocytes was measured after treatment with the test compound. The assay was conducted according to the method of Tafuri, Endocrinology, 137, 4706-4712 (1996). The serum-starved cells were treated with the test compound for 48 hours at different concentrations, then washed and incubated in glucose-free media for 30 minutes at 37° C. Then ^14C-deoxyglucose was added and uptake was monitored for 30 minutes under incubation. After washing, the cells were lysed (0.1% SIDS) and counted.
Basal glucose uptake was measured in differentiated 3T3-L1 adipocytes following the protocol of Tafuri (6) with modifications. Briefly, 3T3-L1 fibroblasts, obtained from ATCC (Manassas, Va.), were differentiated to adipocytes by treating cells with porcine insulin (1 μg/ml for 4 days), dexamethasone (0.25 μM for first 2 days) and isobutyl methyl xanthine (IBMX, 0.5 mM for first 2 days) (all from Sigma Chemicals, St Louis, Mo.) following the protocol of Frost and Lane (7). Differentiated adipocytes were incubated in Dulbecco's Modified Eagle Medium (DMEM) containing 10% fetal bovine serum (GibcoBRL, Gaithersburg, Md.) with various concentrations of Compound 11 or vehicle (0.1% DMSO) for 48 h in 24-well plates, in triplicate. Cells were washed with phosphate buffered saline (PBS, 150 mM NaCl, 1 mM KH2PO4, 3 mM Na2HPO4; pH 7.4) and incubated in glucose-free DMEM for 2 h at 37° C. The cells were washed 3 times with Krebs Ringer Phosphate Buffer (KRP). Glucose uptake was initiated by addition of 0.25 μCi 2-^14C(U)-deoxy-D-glucose (300 μCi/mmol, American Radiolabeled Chemicals Inc., St Louis, Mo.) per well and the cells incubated for 10 min at room temperature in the presence of 0.1 mmol cold 2-deoxy-D-glucose. Finally, the cells were washed three times with ice-cold PBS containing 10 mM cold glucose, lysed with 0.5% SDS, and counted in a scintillation counter (Beckman LS6500).

Human PPAR-γ2 = molecular target: T1, Human PPAR-γ2 (Homo sapiens, UniProt P37231); assay: PPAR-gamma mediated transactivation of PPRE-luciferase reporter; assay type: cell-based; conditions: for EC50: cells transfected with human PPAR-gamma2, 24 hours, non-linear regression, read-out: EC50, induction of PPAR-γ mediated luciferase activity
T1 construct: inserting the PPARγ2 cDNA coding region into pcDNA3.1+ vector; expressed in transfected cells; host or cells: HEK293 cells (ATCC)
T1 sequence (P37231 1-505): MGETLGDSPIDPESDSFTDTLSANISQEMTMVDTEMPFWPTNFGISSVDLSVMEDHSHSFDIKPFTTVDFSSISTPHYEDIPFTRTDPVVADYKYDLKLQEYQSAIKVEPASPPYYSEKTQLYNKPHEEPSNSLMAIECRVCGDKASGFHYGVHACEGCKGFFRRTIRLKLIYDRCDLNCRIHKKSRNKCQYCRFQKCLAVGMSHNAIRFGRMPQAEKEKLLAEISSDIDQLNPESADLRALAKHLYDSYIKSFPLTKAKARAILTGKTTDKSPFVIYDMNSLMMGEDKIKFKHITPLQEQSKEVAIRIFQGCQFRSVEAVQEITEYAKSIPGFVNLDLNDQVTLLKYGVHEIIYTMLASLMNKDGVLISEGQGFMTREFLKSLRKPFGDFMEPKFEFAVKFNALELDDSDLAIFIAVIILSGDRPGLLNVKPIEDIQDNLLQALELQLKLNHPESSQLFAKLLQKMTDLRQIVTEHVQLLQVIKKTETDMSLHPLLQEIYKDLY
Protocol: Human PPAR-γ2 expression vector was constructed by inserting PPAR-γ2 encoding region into pcDNA3.1+ vector (Invitrogen, Carlsbad, Calif.). Luciferase reporter vector was constructed by ligating PPRE response element adjacent to the upstream of Firefly luciferase coding region. Control vector, pRL-SV40 expressing Renilla luciferase was purchased from Promega (Madison, Wis.).
About 2.7×10^4 293 cells (ATCC, Manassas, Va.) were plated into a 35 mm culture well and maintained in Eagle's Minimal Essential Medium (ATCC, Manassas, Va.) supplemented with 10% heat inactivated horse serum (ATCC, Manassas, Va.) for 24 hours. Expression, reporter and control vectors (2.5 ng control and 100 ng others per culture well) were transfected by LI[…]™ Reagent (Invitrogen, Carlsbad, Calif.). Transfection reagent and DNA were prepared according to manufacture's recommendations and incubated with cells for 3 hours followed by adding equal volume EMEM supplemented with 20% horse serum. Twenty-four hours after transfection, cells were treated with vehicle or compounds at indicated final concentration for 24 hours. Final concentration of vehicle was 0.001% DMSO (Sigma, ST Louis, Mo.) in medium. Vehicle and compound treatment were all conducted in triplicate. Each culture well was then assayed for a response characterized by increased Firefly luciferase activity normalized with Renilla luciferase activity.
Assays for Firefly luciferase activity and Renilla luciferase activity followed the standard protocol of Dual-luciferase Reporter® Assay System (Promega, Madison, Wis.). Briefly, 400 μl Passive Lysis Buffer was added into each culture well and all wells were placed on a shaker for 15 minutes. Five μl cell lysate of each well was added to a reaction tube. Luciferase reagent II and Stop & Glo® were injected into the reaction tube sequentially by Sirius Luminometer (Berthold Detection Systems, Pforzheim, Germany). Final reporter activity was calculated as the ratio of Firefly luciferase activity over by Renilla luciferase activity.
Human PPARγ2 expression vector was constructed by inserting the PPARγ2 cDNA coding region into pcDNA3.1+ vector (Invitrogen, Carlsbad, Calif.). The PPRE-luciferase reporter gene was the kind gift of Dr. Kenneth Feingold. The control vector, pRL-SV40 containing the Renilla luciferase cDNA was purchased from Promega (Madison, Wis.). About 2.7×10^4 HEK293 human embryonal kidney cells (ATCC) were plated into a 35-mm tissue culture dish and maintained in Eagle Modified Essential Medium (EMEM, ATCC) containing 10% heat-inactivated horse serum for 24 h. Expression, reporter (100 ng/dish) and control (2.5 ng/dish) vectors were transfected using LI[…]™ Reagent (GibcoBRL) according to manufacturer's recommendation. At 24 h after transfection, cells were treated with vehicle (0.001% DMSO in medium) or compounds at the indicated concentration and incubated for 24 h. Each treatment was conducted in triplicate. Each culture dish was assayed for firefly luciferase activity normalized by Renilla luciferase activity to account for differences in transfection efficiency. Luciferase activity was measured using the Dual-luciferase Reporter® Assay System (Promega) and a Sirius luminometer (Berthold Detection System, Pforzheim, Germany).

NF-kB p65 = NF-kB p65 activation in LPS-stimulated RAW cells (ELISA); assay type: cell-based; conditions: 10 μM, 1 μg/ml LPS 15 min, FIG. 15
AIA rats = assay: Cancellous bone loss in adjuvant induced arthritic (AIA) rats, MicroCT of right proximal tibia; assay type: in vivo, male Lewis rats

Row | Compound | glucose uptake activity in words (3T3-L1 adipocytes; 0.1 μM) | glucose uptake activity in words (3T3-L1 adipocytes; 1 μM) | % Glucose uptake 0.1 μm (3T3-L1 adipocytes) | % Glucose uptake 1.0 μm (3T3-L1 adipocytes) | EC50 (Human PPAR-γ2) | PPAR-gamma agonist potency in words (Human PPAR-γ2; in vitro transactivation assay) | other results
1 | COC(=O)C(=Cc1cc(OC)cc(OC)c1)c1ccc(Oc2ccc(C=C3SC(=O)NC3=O)cc2)cc1 [Compound 10, 3-(3,5-Dimethoxyphenyl)-2-{4-[4-(2,4-dioxothiazolidin-5-ylidenemethyl)-phenoxy]-phenyl}-acrylic acid methyl ester] | retained activity, but less than that of rosiglitazone | comparable to rosiglitazone | 142.6 ± 7.4 % basal of the non treated cells | 209.3 ± 22.6 % basal of the non treated cells | 1.14 µM | reasonable potency | –
2 | COc1cc(C=C(C(=O)O)c2ccc(Oc3ccc(CC4SC(=O)NC4=O)cc3)cc2)cc(OC)c1 (stereo not shown) [Compound 14] | – | comparable to rosiglitazone | 108.6 ± 19.9 % basal of the non treated cells | 199.5 ± 11.6 % basal of the non treated cells | 0.69 ± 0.038 µM | reasonable potency | –
3 | CCCCC/C=C/C=C1/C(=O)C=C[C@@H]1C/C=C\CCCC(=O)O [Compound 15dPGJ2, 15-deoxy-Δ^12,14-prostaglandin J2] | – | – | – | – | – | – | inhibition of the activation of NF-kB (p65) (NF-kB p65): inhibited
4 | COC(=O)C(Cc1cc(OC)cc(OC)c1)c1ccc(Oc2ccc(C=C3SC(=O)NC3=O)cc2)cc1 (stereo not shown) [Compound 17, 3-(3,5-Dimethoxyphenyl)-2-{4-[4-(2,4-dioxothiazolidin-5-ylidenemethyl)-phenoxy]-phenyl}-propionic acid methyl ester] | devoid of activity | modest activity | 101.9 ± 6.8 % basal of the non treated cells | 130.0 ± 27.0 % basal of the non treated cells | 23.9 µM | essentially inactive | –
5 | COC(=O)C(Cc1cc(OC)cc(OC)c1)c1ccc(Oc2ccc(CC3SC(=O)NC3=O)cc2)cc1 (stereo not shown) [Compound 18, 3-(3,5-Dimethoxyphenyl)-2-{4-[4-(2,4-dioxothiazolidin-5-ylmethyl)-phenoxy]-phenyl}-propionic acid methyl ester] | devoid of activity | modest activity | 104.4 ± 5.7 % basal of the non treated cells | 137.0 ± 10.1 % basal of the non treated cells | 57.7 µM | essentially inactive | –
6 | COC(=O)/C(=C\c1cc(OC)cc(OC)c1)c1ccc(Oc2ccc(CC3SC(=O)NC3=O)cc2)cc1 (stereo not shown) [Compound 23, Z-3-(3,5-Dimethoxyphenyl)-2-{4-[4-(2,4-dioxothiazolidin-5-ylmethyl)-phenoxy]-phenyl}-acrylic acid methyl ester] | – | essentially inactive | 89.5 ± 5.6 % basal of the non treated cells | 118.0 ± 3.6 % basal of the non treated cells | 3.69 ± 1.45 µM | – | PPAR-gamma transactivation potency relative to a comparator, in words (Human PPAR-γ2; in vitro transactivation assay): less than one-tenth the potency of compound 11
7 | Etanercept | – | – | – | – | – | – | less cancellous bone lost (AIA rats; AIA rats, treated vs vehicle): ~50%; C.Th (AIA rats; right proximal tibia): 198 ± 25 μm; Conn. Dens (AIA rats; right proximal tibia): 31.9 ± 19.7 l/mm3; SMI (0-3) (AIA rats; right proximal tibia): 2.8 ± 0.4; Tb.N (AIA rats; right proximal tibia): 2.8 ± 0.5 l/mm; BV/TV (AIA rats; right proximal tibia, compound 11 50 mg/kg oral, etanercept 1.67 mg/kg i.p., once daily): 12.9 ± 5.2%
8 | Insulin: insulin, comparator in the 3T3-L1 glucose uptake test | – | – | 335.2 ± 21.7 % basal of the non treated cells | 345.6 ± 8.3 % basal of the non treated cells | – | – | –
